How the values were obtained:
Test in all cases: Natural transformation in CDM upon addition of synthetic peptide
Format in all cases: cell-based, Streptococcus thermophilus
[1] = system: S. thermophilus CNRZ1066
Experimental: Similarly to the protocol used in example 4, strains LMD-9, LMG18311, CNRZ1066 and JIM8777 were pre-cultivated in M17-lactose medium. The cells of the precultures were harvested (5000 g, 9 minutes, 20° C.) and washed twice in CDM and then resuspended in CDM. The washed cells were diluted in fresh CDM medium to obtain an optical density of 0.05, and then incubated at 37° C. After 1.5 h of incubation, in one set of experiment, 1 μM of one of the tested synthetic peptides and 1 μg/mL of pGIUD0855ery DNA (in case of S. thermophilus strains), or 1 μg/ml of pG+host09 DNA (in case of S. salivarius strains) were added to the culture, whereas 1 μg/mL of DNA but no synthetic peptide was added to the second set of experiment. The cultures were grown during 6 hours and serial dilutions were plated on the surface of M17-lactose agar medium containing 2.5 μg/mL of erythromycin to measure transformation efficiency. Transformed S. thermophilus and S. salivarius cells are selected at 37° C. and 29° C., respectively.
(§1) Similarly to the protocol used in example 4, various S. thermophilus strains, including LMD-9, CNRZ1066 and LMG18311 used as controls, were pre-cultivated in M17-lactose medium. The cells of the precultures were harvested (5000 g, 9 minutes, 20° C.) and washed twice in CDM and then resuspended in CDM. The washed cells were diluted in fresh CDM medium to obtain an optical density of 0.05, and then incubated at 37° C. After 1.5 h of incubation, in one set of experiment, 1 μM of one of the tested synthetic peptides (LPYFAGCL) (SEQ ID NO: 85) and 1 μg/mL of pGIUD0855cat DNA were added to the culture, whereas 1 μg/mL of DNA but no synthetic peptide was added to the second set of experiment. Plasmid pGIUD0855cat is a pUC18-derivative containing a chloramphenicol resistance cassette flanked by 1-kb fragments corresponding to the upstream and downstream regions of stu0855. Upon transformation, it promotes the genetic replacement of stu0855 by P32-cat through homologous recombination (FIG. 7). The cultures were grown during 6 hours and serial dilutions were plated on the surface of M17-lactose agar medium containing 5 μg/mL of chloramphenicol to measure transformation efficiency. Transformed S. thermophilus cells were selected at 37° C.; when transformants were obtained, the transformation efficiency was calculated and is given in Table 9.
Day 2: • Centrifuge Day 1—culture (centrifugation parameters: 5000 g, 9 minutes, 15° C.) and perform two washing steps with one volume (10 mL) of CDM (centrifugation parameters: 5000 g, 9 minutes, 15° C.). • Dilute the culture in 10 mL CDM to obtain an OD600nm of 0.05. • A small volume of S. thermophilus cultures (300 μL) is then transferred in white microplate with a transparent bottom (655095; Greiner, Alphen aid Rijn, The Netherlands) and is grown at 37° C. Luminescence at 595 nm and optical density at 600 nm are recorded with the automatic Synergy HT multi-mode microplate reader. The luciferase activity catalysed by LuxAB requires the presence of nonanal as substrate. In this experimental set-up, nonanal (Acros Organics ref. 204-688-5) is supplied to the cultures by placing 50 μL of a solution containing 1% nonanal diluted in mineral oil in the spaces between the wells of a covered microplate (11). […] The luminescence and absorbance are scanned every 10 minutes during 6 hours. • To perform a competence experiment, 1 μg of donor DNA is added in the 300 μL samples in the beginning of incubation. […]

[2] = system: S. thermophilus DGCC3367; details: 1 μM LPYFAGCL, 1 μg/mL pUC18_stu0855::P32cat
Experimental: as §1

[3] = system: S. thermophilus DGCC715; details: 1 μM LPYFAGCL, 1 μg/mL pUC18_stu0855::P32cat
Experimental: as §1

[4] = system: S. thermophilus DGCC7666; details: 1 μM LPYFAGCL, 1 μg/mL pUC18_stu0855::P32cat
Experimental: as §1

[5] = system: S. thermophilus DGCC7694; details: 1 μM LPYFAGCL, 1 μg/mL pUC18_stu0855::P32cat
Experimental: as §1

[6] = system: S. thermophilus DGCC7710; details: 1 μM LPYFAGCL, 1 μg/mL pUC18_stu0855::P32cat
Experimental: as §1

[7] = system: S. thermophilus DGCC7773; details: 1 μM LPYFAGCL, 1 μg/mL pUC18_stu0855::P32cat
Experimental: as §1

[8] = system: S. thermophilus DGCC7785; details: 1 μM LPYFAGCL, 1 μg/mL pUC18_stu0855::P32cat
Experimental: as §1

[9] = system: S. thermophilus DGCC7790; details: 1 μM LPYFAGCL, 1 μg/mL pUC18_stu0855::P32cat
Experimental: as §1

[10] = system: S. thermophilus DGCC7796; details: 1 μM LPYFAGCL, 1 μg/mL pUC18_stu0855::P32cat
Experimental: as §1

[11] = system: S. thermophilus DGCC7809; details: 1 μM LPYFAGCL, 1 μg/mL pUC18_stu0855::P32cat
Experimental: as §1

[12] = system: S. thermophilus DGCC782; details: 1 μM LPYFAGCL, 1 μg/mL pUC18_stu0855::P32cat
Experimental: as §1

[13] = system: S. thermophilus DGCC7853; details: 1 μM LPYFAGCL, 1 μg/mL pUC18_stu0855::P32cat
Experimental: as §1

[14] = system: S. thermophilus DGCC7854; details: 1 μM LPYFAGCL, 1 μg/mL pUC18_stu0855::P32cat
Experimental: as §1

[15] = system: S. thermophilus DGCC7879; details: 1 μM LPYFAGCL, 1 μg/mL pUC18_stu0855::P32cat
Experimental: as §1

[16] = system: S. thermophilus DGCC7891; details: 1 μM LPYFAGCL, 1 μg/mL pUC18_stu0855::P32cat
Experimental: as §1

[17] = system: S. thermophilus DGCC7909; details: 1 μM LPYFAGCL, 1 μg/mL pUC18_stu0855::P32cat
Experimental: as §1

Substance: LPYFAGCL (fragment) [synthetic peptide corresponding to a C-terminal fragment of Shp316]
- Transformation rate, With peptide addition ([1]; 1 μM LPYFAGCL, 1 μg/mL pUC18_stu0855::P32cat, chloramphenicol selection): 3 × 10^−2
- Transformation rate, With peptide addition [2]: 1.8 × 10^−3
- Transformation rate, With peptide addition [3]: 1.2 × 10^−2
- Transformation rate, With peptide addition [4]: 4.2 × 10^−2
- Transformation rate, With peptide addition [5]: 3.9 × 10^−2
- Transformation rate, With peptide addition [6]: 1 × 10^−2
- Transformation rate, With peptide addition [7]: 1.5 × 10^−1
- Transformation rate, With peptide addition [8]: 4.1 × 10^−5
- Transformation rate, With peptide addition [9]: 4.3 × 10^−2
- Transformation rate, With peptide addition [10]: 6.9 × 10^−2
- Transformation rate, With peptide addition [11]: 5.8 × 10^−4
- Transformation rate, With peptide addition [12]: 2 × 10^−3
- Transformation rate, With peptide addition [13]: 4.9 × 10^−4
- Transformation rate, With peptide addition [14]: 5.3 × 10^−3
- Transformation rate, With peptide addition [15]: 8.6 × 10^−3
- Transformation rate, With peptide addition [16]: 1.4 × 10^−4
- Transformation rate, With peptide addition [17]: 4.5 × 10^−3

Substance: PYFAGCL (fragment)
- Transformation rate, With peptide addition ([1]; 1 μM PYFAGCL, 1 μg/mL pGIUD0855ery): 3.69 × 10^−4
- Complementation of the transformation defect in CDM ([1]; 1 μM peptide, result in words): complements the transformation defect

Source: patent publication US9243254B2, “Method for transforming a bacterium belonging to the streptococcus genus by natural competence” (priority 2009, dated 2016)
